Data published in patent US6344484B1, “Tyrosine alkoxyguanidines as integrin inhibitors” (3-Dimensional Pharmaceuticals, Inc., priority 1999, dated 2002).
Where a name gives a salt, the structure may show the parent alone. Read-outs that look alike come from different tables or passages of the source.

Legend:
human αvβ3 = target: T1, human αvβ3 (Homo sapiens, UniProt P05106+P06756); test: αvβ3-vitronectin assay (ELISA, inhibition of αvβ3-vitronectin interaction); type: binding
T1 construct: purchased Chemicon CC10118
Experimental: The assay was based on the method of Niiya (Niiya, K., et al., Blood 70:475-483 (1987)). Costar 9018 flat-bottom 96-well ELISA plates were coated overnight at 4° C. with 100 μL/well of 0.4 μg/mL human αvβ3 (Chemicon CC10118) in TS buffer (20 mM Tris-HCl pH 7.5, 150 mM NaCl, 1 mM CaCl2, 1 mM MgCl2, 1 mM MnCl2). All subsequent steps were performed at room temperature. Plates were blocked for 2 hr with 200 μL/well of TS buffer containing 1% BSA (TSB buffer), and washed 5 times with 200 μL/well of TS buffer. Controls or test compound (0.44-455 nM) were mixed with 1 μg/mL of human vitronectin (Chemicon CC1019) that had been biotinylated in-house with sulfo-NHS-LC-LC-biotin (Pierce 21338, 20:1 molar ratio), and 100 μL/well of these solutions (in TSB buffer) were incubated for 2 hr. The plate was then washed 5 times with TS buffer, and 100 μL/well of 1 μ/mL NeutrAvidin-horseradish peroxidase conjugate (Pierce 31001) in TSB buffer was incubated for 1 hr. Following a 5-fold TS buffer wash, the plate was developed and results were calculated as described for the fibrinogen-IIbIIIa assay.

human GPIIbIIIa = target: T2, human GPIIbIIIa (Homo sapiens, UniProt P05106+P08514); test: Fibrinogen-IIb-IIIa assay (ELISA, inhibition of fibrinogen-GPIIbIIIa interaction); type: binding; conditions: mean of three replicate determinations; FIG. 1
T2 construct: purchased Enzyme Research Laboratories
Experimental: Fibrinogen-IIb-IIIa assay
The assay is based on the method of Dennis (Dennis, M. S., et al, Proteins 15: 312-321 (1993)). Costar 9018 flat-bottom 96-well ELISA plates were coated overnight at 4° C. with 100 μL/well of 10 μg/mL human fibrinogen (Calbiochem 341578) in 20 mM Tris-HCl pH 7.5, 150 mM NaCl, 2 mM CaCl2, 0.02% NaN3 (TAC buffer), and blocked for 1 hr at 37° C. with 150 μL/well of TAC buffer containing 0.05% Tween 20 and 1% bovine serum albumin (TACTB buffer). After washing 3 times with 200 μL/well of 10 mM Na2HPO4 pH 7.5, 150 mM NaCl, 0.01% Tween 20 (PBST buffer), controls or test compound (0.036-18.2 μM) were mixed with 40 μg/mL human GPIIbIIIa (Enzyme Research Laboratories) in TACTB buffer, and 100 μL/well of these solutions were incubated for 2 hr at 37° C. The plate was then washed 3 times with PBST buffer, and 100 μL/well of a monoclonal anti-GPIIbIIIa antibody in TACTB buffer (1 μg/mL, Enzyme Research Laboratories MabGP2b3a) was incubated at 37° C. for 1 hr. […] The reaction was stopped with 50 μL/well of 2M H2SO4, and the absorbence at 492 nm was recorded. Percent (%) inhibition was calculated from the average of three separate determinations relative to buffer controls (no test compound added), and a four parameter fit (Marquardt, D. W., J. Soc. Indust. Appl. Math. 11:431-441 (1963)) was used to estimate the half maximal inhibition concentration (IC50).

[1] = Table I, read-out: αvβ3 IC50 (nM), inhibition of the αvβ3-vitronectin interaction

T1 sequence (P06756 31-889 limits assumed): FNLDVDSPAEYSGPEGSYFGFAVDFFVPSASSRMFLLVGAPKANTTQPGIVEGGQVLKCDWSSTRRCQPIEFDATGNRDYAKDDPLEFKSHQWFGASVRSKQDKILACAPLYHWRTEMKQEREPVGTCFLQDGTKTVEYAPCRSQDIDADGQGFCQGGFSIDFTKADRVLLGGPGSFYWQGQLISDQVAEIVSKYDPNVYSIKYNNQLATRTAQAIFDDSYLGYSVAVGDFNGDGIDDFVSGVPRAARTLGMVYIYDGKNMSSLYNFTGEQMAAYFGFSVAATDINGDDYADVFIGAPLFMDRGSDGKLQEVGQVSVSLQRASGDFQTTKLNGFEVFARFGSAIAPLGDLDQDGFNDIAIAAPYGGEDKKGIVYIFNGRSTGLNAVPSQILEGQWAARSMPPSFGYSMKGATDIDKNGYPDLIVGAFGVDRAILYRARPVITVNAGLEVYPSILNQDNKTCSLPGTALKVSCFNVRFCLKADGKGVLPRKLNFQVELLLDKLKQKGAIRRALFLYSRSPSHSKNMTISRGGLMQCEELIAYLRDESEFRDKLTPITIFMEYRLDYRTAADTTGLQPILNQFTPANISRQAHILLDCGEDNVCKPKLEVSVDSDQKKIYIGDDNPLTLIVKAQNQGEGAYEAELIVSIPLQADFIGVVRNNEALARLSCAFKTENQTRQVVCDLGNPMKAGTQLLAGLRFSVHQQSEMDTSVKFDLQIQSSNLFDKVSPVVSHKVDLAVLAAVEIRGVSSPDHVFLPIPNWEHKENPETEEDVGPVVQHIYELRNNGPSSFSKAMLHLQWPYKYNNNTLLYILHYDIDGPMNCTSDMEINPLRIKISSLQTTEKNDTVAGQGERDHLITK
T1 sequence (P06756 891-1048 partner limits assumed): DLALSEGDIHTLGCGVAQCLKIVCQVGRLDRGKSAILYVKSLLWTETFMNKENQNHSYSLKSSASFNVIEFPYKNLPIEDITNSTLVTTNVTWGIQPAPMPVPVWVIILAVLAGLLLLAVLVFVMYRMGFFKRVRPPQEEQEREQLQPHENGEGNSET
T1 sequence (P05106 27-788): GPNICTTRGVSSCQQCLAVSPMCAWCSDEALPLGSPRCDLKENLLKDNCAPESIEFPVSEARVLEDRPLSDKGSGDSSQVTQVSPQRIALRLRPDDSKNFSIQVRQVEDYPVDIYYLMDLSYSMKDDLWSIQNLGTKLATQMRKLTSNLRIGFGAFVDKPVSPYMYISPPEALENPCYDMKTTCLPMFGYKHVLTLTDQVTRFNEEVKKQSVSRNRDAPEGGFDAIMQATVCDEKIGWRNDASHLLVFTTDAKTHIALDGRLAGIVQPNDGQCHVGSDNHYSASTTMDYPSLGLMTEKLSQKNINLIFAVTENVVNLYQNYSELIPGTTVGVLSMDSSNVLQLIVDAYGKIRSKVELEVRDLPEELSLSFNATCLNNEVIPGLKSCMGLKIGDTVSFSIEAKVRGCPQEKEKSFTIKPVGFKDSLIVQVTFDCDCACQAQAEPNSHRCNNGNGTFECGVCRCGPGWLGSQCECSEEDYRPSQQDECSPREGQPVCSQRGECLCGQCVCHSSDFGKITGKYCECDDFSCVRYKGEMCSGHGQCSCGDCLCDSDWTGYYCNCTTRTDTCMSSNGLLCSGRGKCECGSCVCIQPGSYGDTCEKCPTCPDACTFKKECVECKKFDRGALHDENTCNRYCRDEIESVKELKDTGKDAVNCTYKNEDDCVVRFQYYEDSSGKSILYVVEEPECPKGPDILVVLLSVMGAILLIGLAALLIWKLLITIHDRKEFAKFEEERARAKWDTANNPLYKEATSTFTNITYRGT
T2 sequence (P08514 32-887 limits assumed): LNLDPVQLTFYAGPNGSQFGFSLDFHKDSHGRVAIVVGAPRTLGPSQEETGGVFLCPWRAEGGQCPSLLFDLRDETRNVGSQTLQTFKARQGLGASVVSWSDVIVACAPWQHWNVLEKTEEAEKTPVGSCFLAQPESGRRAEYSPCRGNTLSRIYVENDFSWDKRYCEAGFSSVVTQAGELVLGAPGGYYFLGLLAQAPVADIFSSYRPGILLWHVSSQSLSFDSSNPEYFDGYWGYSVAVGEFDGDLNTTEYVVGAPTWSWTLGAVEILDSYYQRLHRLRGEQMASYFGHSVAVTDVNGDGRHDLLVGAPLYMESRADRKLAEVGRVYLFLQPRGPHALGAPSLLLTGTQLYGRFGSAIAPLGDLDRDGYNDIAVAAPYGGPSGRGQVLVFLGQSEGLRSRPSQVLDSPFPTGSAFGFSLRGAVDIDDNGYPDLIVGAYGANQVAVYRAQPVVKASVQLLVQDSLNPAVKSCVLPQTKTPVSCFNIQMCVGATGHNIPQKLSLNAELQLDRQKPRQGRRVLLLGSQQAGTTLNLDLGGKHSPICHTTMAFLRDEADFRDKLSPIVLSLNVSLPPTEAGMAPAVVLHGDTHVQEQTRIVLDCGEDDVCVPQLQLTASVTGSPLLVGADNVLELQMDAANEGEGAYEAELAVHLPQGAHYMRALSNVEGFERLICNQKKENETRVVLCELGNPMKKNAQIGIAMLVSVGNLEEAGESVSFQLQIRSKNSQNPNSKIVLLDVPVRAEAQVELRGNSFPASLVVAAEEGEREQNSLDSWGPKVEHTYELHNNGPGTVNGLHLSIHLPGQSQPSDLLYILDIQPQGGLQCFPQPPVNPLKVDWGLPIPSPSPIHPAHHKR
T2 sequence (P08514 891-1039 partner limits assumed): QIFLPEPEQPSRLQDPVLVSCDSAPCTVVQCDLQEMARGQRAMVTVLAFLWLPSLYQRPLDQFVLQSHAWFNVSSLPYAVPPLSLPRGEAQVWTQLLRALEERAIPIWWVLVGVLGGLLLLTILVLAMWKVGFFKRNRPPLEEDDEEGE
T2 sequence (P05106 27-788): as the sequence (P05106 27-788) above

SMILES | IC50 (human αvβ3; mean of three replicate determinations, FIG. 2, read-out: IC50, inhibition of the αvβ3-vitronectin interaction) [nM] | IC50 (human GPIIbIIIa) [nM] | IC50 (human αvβ3; [1]) [nM]
CCCCS(=O)(=O)N[C@@H](Cc1ccc(OCCCONC(=N)N)cc1)C(=O)O [Example 1, (2S)-3-{4-[3-(amidinoaminooxy)propoxy]phenyl}-2-[(butylsulfonyl)amino]propanoic acid trifluoroacetic acid] | 28 | 780 | –
Cc1ccc([N+](=O)[O-])cc1S(=O)(=O)N[C@@H](Cc1ccc(OCCCONC(=N)N)cc1)C(=O)O [Example 11, (2S)-3-{4-[3-(Amidinoaminooxy)propoxy]phenyl)}-2-{[(2-methyl-5-nitrophenyl)sulfonyl]amino}propanoic acid trifluoroacetic acid salt] | – | – | 2
N=C(N)NOCCCOc1ccc(C[C@H](NS(=O)(=O)c2c(Cl)cccc2Cl)C(=O)O)cc1 [Example 46, (2S)-3-{4-[3-(Amidinoaminooxy)propoxy]phenyl}-2-{[(2,6-dichlorophenyl)sulfonyl]amino}propanoic acid trifluoroacetic acid salt] | – | – | 2
Cc1nn(C)c(Cl)c1S(=O)(=O)N[C@@H](Cc1ccc(OCCCONC(=N)N)cc1)C(=O)O [Example 77, (2S)-3-{4-[3-(Amidinoaminooxy)propoxy]phenyl}-2-{[(5-chloro-1,3-dimethylpyrazol-4-yl)sulfonyl]amino}propanoic acid trifluoroacetic acid salt] | – | – | 6
CC1(C)C2CCC1(CS(=O)(=O)N[C@@H](Cc1ccc(OCCCONC(=N)N)cc1)C(=O)O)C(=O)C2 (stereo partly drawn) [Example 86, (2S)-2-{[(1S)-10-Camphorsulfonyl]amino}-3-{4-[3-(amidinoaminooxy)propoxy]phenyl}propanoic acid trifluoroacetic acid salt] | – | – | 1
